Earlier results in US20160303150A1, “DEUTERATED TREHALOSE FORMULATIONS AND USES THEREOF” (BioBlast Pharma Ltd., priority 2015, published 2016).

What was measured:
[1] = in vivo
[2] = 0.2%-5% trehalose in drinking water, 5-9 weeks, transgenic HD mice

OC[C@H]1O[C@H](O[C@H]2O[C@H](CO)[C@@H](O)[C@H](O)[C@H]2O)[C@H](O)[C@@H](O)[C@@H]1O [trehalose, α-G-glucopyranosyl α-D-glucopyranoside]
aggregation formation and toxicity of mutant PABPN1 in myocytes (transgenic OPMD mice; 2% trehalose in drinking water, 4-6 months): significantly reduce aggregation formation and toxicity of the mutant PABPN1 in myocytes
OPMD onset, disease phenotype, aggregate formation and cell death (transgenic OPMD mice; oral trehalose): delay the OPMD onset, attenuate the disease phenotype, decrease polyalanine protein aggregate formation and decrease cell death
fraction of administered trehalose not absorbed into the blood stream [1]: over 99.5%
HD-related motor symptoms (transgenic HD mice; [2]): improvement of HD-related motor symptoms
formation of intra-nuclear huntingtin aggregates in the brain and liver (transgenic HD mice; [2]): inhibition of formation of intra-nuclear huntingtin aggregates in the brain and liver
survival (transgenic HD mice; oral administration, HD mouse model): extend survival
oral amount causing diarrhea and bloating (oral): 40-50 gram per day
safety findings in healthy volunteers (oral doses ranging from 10 to 60 gr, healthy volunteers): no other safety issues were reported
oral amount frequently causing diarrhea, bloating and discomfort (oral, humans): higher than 50 g a day
